Results: paper PMC5955599, “The HTLV-1 gp21 fusion peptide inhibits antigen specific T-cell activation in-vitro and in mice” (PLoS Pathogens, 2018)

Legend:
[1] = system: mouse MOG35-55–antigen specific T cells; conditions: XTT, n = 4
Method: Aliquots of 10^4 cells were distributed onto a 96-well plate in the presence of 1.25–40μM of the relevant peptides for 16 or 72 hours. Following incubation, XTT reaction solution (benzene sulfonic acid hydrate and N-methyl dibenzopyrazine methyl sulfate, mixed in a proportion of 50:1), was added for 2 hours. Optical density was read at 450-nm wavelength. The percentage of toxicity was calculated relative to the control, 10^4 cells in medium with no peptide added.
Viability of cells was analyzed by an XTT cytotoxicity assay. MOG35-55–antigen specific T cells were incubated with peptides at concentrations ranging from 40μM to 2.5μM in serial dilutions (from black to light gray respectively). (A) Viability was analyzed following overnight (16 hours) incubation with peptides. (B) Viability was analyzed following 72 hour incubation with the peptide. The data is presented as mean percent viability. Error bars represent ± S.E.M. n = 4. (TIF) Click here for additional data file.

[2] = system: human peripheral T lymphocytes; assay: Cytokine secretion from primary human peripheral T-cells (ELISA); assay type: cell-based; conditions: peptide at 10μM, CD3 and CD28 antibodies, media 48 hours following activation, n = 12
Method: Fig 4 Primary human T-cell activation is inhibited upon HTLV FP treatment. Human peripheral T lymphocytes were isolated from whole blood and activated using CD3 and CD28 antibodies, in the presence of HTLV FP or HTLV Scr at 10μM. Media was collected 48 hours following activation and secretion of IL2, IFN-γ and IL10 was measured by ELISA assay. […] One-way ANOVA was used for statistical analysis. *P<0.05; ***P<0.001; ns, not significant.
Human peripheral T lymphocytes were isolated from whole blood of healthy adult donors by dextran sedimentation and Ficoll (Sigma) gradient separation followed by depletion of B cells using nylon wool column (Unisorb), to which B cells were adsorbed. Cells were incubated in a complete RPMI growth medium (500 ml RPMI Ca/Mg + heat inactivated FCS (10% final) + 5 ml 200 mM L-Glu (2 mM final) +5 ml […] Na pyruvate (1 mM final) + 5 ml Pen Strep antibiotics) for more than 2 h, and then non-adherent cells were harvested and transferred to a new plate, resulting in ~90% CD3+ T lymphocytes. Cells were then used for in vitro assay, in which […] were plated per well in a 96-well plate and activated using CD3 and CD28 antibodies.
Human peripheral T lymphocytes were isolated from whole blood of healthy donors and were incubated in a complete RPMI growth medium (500 ml RPMI Ca/Mg + heat inactivated FCS (10% final) + 5 ml 200 mM L-Glu (2 mM final) +5 ml […] Na pyruvate (1 mM final) + 5 ml Pen Strep antibiotics). Cells were activated using CD3 and CD28 antibodies, in the presence of relevant peptides at 10μM. Media was collected 48 hours following activation and secretion of IL2 and IFN-γ was determined according to standard protocols from R&D systems.

[3] = Circular dichroism spectroscopy with CDNN secondary structure analysis; assay type: physicochemical; conditions: 25μM peptide in 5mM HEPES buffer with 1% LPC
Method: Fig 6 Detection of the immune modulatory region within the HTLV FP. (A) Sequences of shorter peptides derived from the full length HTLV FP. (B) MOG35-55–antigen specific T-cells were activated by APCs in the presence of HTLV FP derived peptides at 10μM and proliferative responses were assessed as described above. […] The data is presented as mean inhibition of proliferation. n = 12. (C) MOG35-55–antigen specific T cells were activated by either (i) irradiated MOG35-55 presenting APCs (black), (ii) antibodies against CD3 and CD28 (white), or (iii) PMA and Ionomycin (gray) in the presence of HTLV FP5-13 and HIV FP5-13 at 10μM. Proliferative responses were assessed as described above. The HTLV FP inhibits T-cell proliferation induced either through the TCR or downstream from the TCR with equal potencies. The data is presented as mean inhibition of proliferation. n = 12. […] CD spectra were measured at 25μM in 5mM HEPES buffer containing 1% lyso-phosphatidylcholine (LPC). […] (E) MOG35-55–antigen specific T-cells were activated by APCs in the presence of HTLV FP5-13 D/L enantiomers at 10μM and proliferative responses were assessed as described above. Both HTLV FP5-13 enantiomers inhibit T-cells proliferation with equal potencies. The data is presented as mean inhibition of proliferation. n = 12. One-way ANOVA was used for statistical analysis. *P<0.05;**P<0.01;***P<0.001.

[4] = system: MOG35-55–antigen specific T-cells; assay: Cytokine secretion from activated antigen-specific T-cells (ELISA); assay type: cell-based, mouse (C57Bl/6J); conditions: peptide at 10μM, APC-activated T-cells, media 24 hours following activation, n = 12
Method: Fig 2 Modulation of Th1/Th2 gene expression and cytokine secretion from activated T-cells by the HTLV FP. MOG35-55–antigen specific T-cells were activated by irradiated MOG35-55 presenting APCs, in the presence of the HTLV FP at 10μM. (A) Total RNA was isolated 24 hours following activation and mRNA expression levels were determined by qRT-PCR. The values of each gene were normalized to Rpl13a as a housekeeping control. The HTLV FP reduces mRNA expression of Th1 specific genes (IFNG, LTA, and STAT4) and elevates mRNA expression of Th2 specific genes (IL4 and IL10). The data is presented as arbitrary units. n≥3. (B) Media was collected 24 hours following activation and secretion of cytokines was measured by ELISA assay. IFN-γ secretion is inhibited, IL4 secretion is elevated and TNFα is not affected by the HTLV FP. n = 12. One-way ANOVA was used for statistical analysis. *P<0.05; **P<0.01;***P<0.001.
Antigen-specific T-cells were plated onto round 96-well plates in medium containing RPMI-1640 supplemented with 2.5% fetal calf serum (FCS), 100 U/ml penicillin, 100 μg/ml streptomycin, 50μM β-mercaptoethanol, and 2mM L-glutamine. […] In addition, the relevant peptide was added. Each treatment was made with quadruplicate. Analysis of IFN-γ, IL-4 and TNFα secretion was performed by ELISA 24 hours after cell activation according to standard protocols from R&D systems.

[5] = CD 190–260 nm, CDNN, relative amount of structure out of 100%

## AVPVAVWLVSALAMGAGVAGGITGSMSLASGKS [HTLV FP, gp21 fusion peptide of HTLV-1, MT-2 isolate]
[1]; peptide 40μM to 2.5μM, 72 hour incubation
  toxicity to mouse T-cells, 72 hours: not toxic up to 4-fold higher than the concentrations used in this study
[1]; peptides 40μM to 2.5μM, overnight (16 hours) incubation
  toxicity to mouse T-cells, 16 hours: not toxic up to 4-fold higher than the concentrations used in this study
[2]
  IFN-γ secretion, human T-cells: significant reduction in IFN-γ and IL2 secretion
  IL2 secretion, human T-cells: significant reduction in IFN-γ and IL2 secretion
  IL10 secretion, human T-cells: elevation in IL10 secretion
[3]; [5]
  Antiparallel β-Sheet: 2.1%
  Parallel β-Sheet: 3.3%
  Random-coil: 13%
  α-Helix: 68.6%
  β-turn: 13%
[3]; CD
  secondary structure in a membrane mimetic environment: exhibited an α-helical structure
[4]
  IFN-γ secretion: inhibited both T-cell proliferation and IFN-γ secretion with higher potency than the HTLV Scr
  IL4 secretion: elevated IL4 secretion
  TNF-α secretion: had no effect on TNF-α secretion
